For one assay, the system named is Salmonella typhimurium. Description: Antibacterial activity against Salmonella Typhimurium ATCC 14028 after 24 hrs by 2-fold microtiter broth dilution method. In kind it is functional, organism-based. Conditions: Salmonella enterica subsp. enterica serovar Typhimurium.
A further assay deals with Micrococcus luteus. The assay can be described thus: Antibacterial activity against Micrococcus luteus ATCC 9341 after 24 hrs by 2-fold microtiter broth dilution method. The assay is classed as functional, organism-based. On the technique in general: Broth dilution looks for growth in wells or tubes with falling amounts of substance.
The next assay has as its system Staphylococcus aureus. Description: Antibacterial activity against Staphylococcus aureus ATCC 6538 after 24 hrs by 2-fold microtiter broth dilution method. The assay is classed as functional, organism-based.
A further assay deals with Escherichia coli. The assay can be described thus: Antibacterial activity against Escherichia coli ATCC 11775 after 24 hrs by 2-fold microtiter broth dilution method. The assay is classed as functional, organism-based.
The test system of assay [1] is Staphylococcus epidermidis. Description: Antibacterial activity against Staphylococcus epidermidis ATCC 12228 after 24 hrs by 2-fold microtiter broth dilution method. The conditions noted are these: ATCC 12228, 24 h. In kind it is functional.
The test system of a further assay is Klebsiella pneumoniae. The assay can be described thus: Antibacterial activity against Klebsiella pneumoniae ATCC 4352 after 24 hrs by 2-fold microtiter broth dilution method. The assay is classed as functional, organism-based.
In another assay the test system is Bacillus subtilis. The assay can be described thus: Antibacterial activity against Bacillus subtilis ATCC 6633 after 24 hrs by 2-fold microtiter broth dilution method. In kind it is functional. The conditions noted are these: ATCC 6633, 24 h.

Values after ≈ are worked out from the molar mass of the structure shown. Active and inactive are the calls of the source. No cut-off for these calls is given here.

This is an account of results in ChEMBL document CHEMBL1144792, “Beta-carboline alkaloids from a Korean tunicate Eudistoma sp” (2008).

As usually defined, the MIC is the lowest concentration found to suppress growth. High values mean a less susceptible organism, low ones a more susceptible organism.

Regarding `O=C(c1cc(Br)c(O)c(Br)c1)c1nccc2c1[nH]c1ccc(Br)cc12` [EUDISTOMIN Y6], the outcome with Salmonella typhimurium, with Micrococcus luteus, in the assay on Staphylococcus aureus, in the assay on Escherichia coli and in the assay with Klebsiella pneumoniae was inactive. The MIC was 12.5 µg/mL (≈ 23.8 µM) in assay [1] and 25 µg/mL (≈ 47.6 µM) in the assay with Bacillus subtilis.

Molecule `O=C(c1ccc(O)c(Br)c1)c1nccc2c1[nH]c1ccc(Br)cc12` [EUDISTOMIN Y4] returned an MIC with Bacillus subtilis of 200 µg/mL (≈ 448 µM).

In turn, `O=C(c1ccc(O)cc1)c1nccc2c1[nH]c1ccccc12` [EUDISTOMIN Y1] showed an MIC in assay [1] of 50 µg/mL (≈ 173 µM).
